Results published in BindingDB's records for patent US20250215013 (Impact Therapeutics (Shanghai), 2025).

Key:
PARP2 = PARP2 (Homo sapiens, UniProt Q9UGN5); assay: PARP1 and PARP2 Chemiluminescent Assay
[1] = molecular target: Poly [ADP-ribose] polymerase 1 (Homo sapiens, UniProt P09874); assay: PARP1 and PARP2 Chemiluminescent Assay
Chain of Poly [ADP-ribose] polymerase 1 (P09874 whole entry): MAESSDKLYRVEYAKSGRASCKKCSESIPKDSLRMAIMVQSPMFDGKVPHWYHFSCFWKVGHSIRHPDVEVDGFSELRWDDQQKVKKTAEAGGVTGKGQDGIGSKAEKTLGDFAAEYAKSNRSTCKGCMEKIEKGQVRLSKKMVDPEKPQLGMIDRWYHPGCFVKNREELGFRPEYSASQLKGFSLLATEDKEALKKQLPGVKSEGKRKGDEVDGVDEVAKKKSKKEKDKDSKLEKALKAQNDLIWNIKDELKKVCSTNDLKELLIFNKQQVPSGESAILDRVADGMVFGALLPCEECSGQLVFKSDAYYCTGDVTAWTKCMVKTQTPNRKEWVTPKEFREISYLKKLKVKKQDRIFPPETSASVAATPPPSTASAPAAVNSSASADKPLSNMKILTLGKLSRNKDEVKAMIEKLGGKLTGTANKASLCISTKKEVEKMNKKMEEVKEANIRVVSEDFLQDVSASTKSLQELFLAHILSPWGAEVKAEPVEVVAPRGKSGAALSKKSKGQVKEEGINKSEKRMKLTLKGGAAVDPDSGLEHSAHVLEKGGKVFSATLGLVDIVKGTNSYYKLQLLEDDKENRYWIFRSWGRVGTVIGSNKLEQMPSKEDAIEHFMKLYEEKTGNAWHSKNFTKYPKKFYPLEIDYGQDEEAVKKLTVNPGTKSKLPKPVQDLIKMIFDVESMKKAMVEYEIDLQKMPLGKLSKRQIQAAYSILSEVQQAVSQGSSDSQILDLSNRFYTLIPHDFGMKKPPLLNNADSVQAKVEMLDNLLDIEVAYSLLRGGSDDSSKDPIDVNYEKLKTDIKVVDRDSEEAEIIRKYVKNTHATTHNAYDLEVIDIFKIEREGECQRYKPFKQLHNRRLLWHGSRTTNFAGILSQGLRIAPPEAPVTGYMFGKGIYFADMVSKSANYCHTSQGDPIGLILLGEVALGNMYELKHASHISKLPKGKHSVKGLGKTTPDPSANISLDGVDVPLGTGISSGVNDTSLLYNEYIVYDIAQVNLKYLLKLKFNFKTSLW

Chain of PARP2 (Q9UGN5 whole entry): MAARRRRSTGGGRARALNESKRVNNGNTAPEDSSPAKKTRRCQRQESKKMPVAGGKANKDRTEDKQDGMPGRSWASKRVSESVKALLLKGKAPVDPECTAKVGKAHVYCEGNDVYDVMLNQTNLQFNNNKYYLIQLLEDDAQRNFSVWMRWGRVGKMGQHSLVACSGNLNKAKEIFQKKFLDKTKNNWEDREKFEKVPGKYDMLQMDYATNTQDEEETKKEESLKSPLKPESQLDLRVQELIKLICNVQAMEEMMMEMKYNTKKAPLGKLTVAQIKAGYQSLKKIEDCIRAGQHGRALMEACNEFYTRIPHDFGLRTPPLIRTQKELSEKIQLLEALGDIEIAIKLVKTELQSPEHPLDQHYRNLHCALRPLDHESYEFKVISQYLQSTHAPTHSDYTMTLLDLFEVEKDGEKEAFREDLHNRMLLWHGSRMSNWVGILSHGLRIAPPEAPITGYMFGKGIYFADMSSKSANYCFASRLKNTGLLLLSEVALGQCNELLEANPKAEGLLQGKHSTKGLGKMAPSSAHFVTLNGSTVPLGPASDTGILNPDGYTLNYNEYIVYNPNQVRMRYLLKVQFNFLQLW

IC50 (PARP2) [nM] | IC50 [1] [nM] | SMILES
1540 | 0.4 | CNC(=O)c1ccc(N2CCN(Cc3ccc4c([nH]c(=O)c5c(F)cnn54)c3F)CC2)c(F)n1 [US20250215013, Example 188]
> 10000 | 2.13 | CNC(=O)c1ccc(N2CCN(Cc3ccc4c([nH]c(=O)n5ccnc45)c3F)CC2)c(C)n1 [US20250215013, Example 50]
